According to publication PMC4965013, “Open Source Drug Discovery with the Malaria Box Compound Collection for Neglected Diseases and Beyond” (PLoS Pathogens, 2016):

How the values were obtained:
[1] = tested on: P. falciparum 3D7 trophozoites; assay: Metabolomic fingerprint profiling LC-MS; type: cell-based, Plasmodium falciparum; set-up: UDP-D-glucose / ADP-D-glucose: unit not given here; conditions: for Acetyllysine / N-acetyl-L-ornithine / N-carbamoyl-L-aspartate / NADPH / dAMP / dCMP / dTDP / dTMP / dTTP / dihydroorotate / orotate / DLH / DLS/SDL/SID / PD / PEE / PVNF / 3-phosphoglycerate / ADP-D-glucose / ATP / CDP / D-sedoheptulose-1/7-phosphate / FAD / GMP / NAD+ / NADP+ / Octoluse Bisphosphate / Pyroglutamic acid / UDP-D-glucose / UDP-D-glucuronate / UDP-N-acetyl-glucosamine / UDP / UMP / UTP / a-ketoglutarate / citrate/isocitrate / cytidine / dATP / dGMP/AMP / fumarate / glucose-1/6-phosphate / glycerate / guanine / guanosine / hypoxanthine / indole / inosine / nicotinate / ornithine / phosphoenolpyruvate / pyruvate / ribose-phosphate / sarcosine/alanine / sn-glycerol-3-phosphate / succinate/methylmalonic acid / uridine / xanthosine: S2 Table Metabolomics; for Acetyllysine: metabolite Acetyllysine; for N-acetyl-L-ornithine: metabolite N-acetyl-L-ornithine; for N-carbamoyl-L-aspartate: metabolite N-carbamoyl-L-aspartate; for NADPH: metabolite NADPH; for dAMP: metabolite dAMP; for dCMP: metabolite dCMP; for dTDP: metabolite dTDP; for dTMP: metabolite dTMP; for dTTP: metabolite dTTP; for dihydroorotate: metabolite dihydroorotate; for orotate: metabolite orotate; for DLH: peptide DLH; for DLS/SDL/SID: peptide DLS/SDL/SID; for PD: peptide PD; for PEE: peptide PEE; for PVNF: peptide PVNF; for 3-phosphoglycerate: metabolite 3-phosphoglycerate; for ADP-D-glucose: metabolite ADP-D-glucose; for ATP: metabolite ATP; for CDP: metabolite CDP; for CDP / D-sedoheptulose-1/7-phosphate / GMP / Octoluse Bisphosphate / UDP / UMP / UTP / citrate/isocitrate / dGMP/AMP / fumarate / glucose-1/6-phosphate / glycerate / guanine / guanosine / inosine / pyruvate / sarcosine/alanine / succinate/methylmalonic acid / uridine / xanthosine: change in metabolite level after compound treatment; for D-sedoheptulose-1/7-phosphate: metabolite D-sedoheptulose-1/7-phosphate; for FAD: metabolite FAD; for GMP: metabolite GMP; for NAD+: metabolite NAD+; for NADP+: metabolite NADP+; for Octoluse Bisphosphate: metabolite Octoluse Bisphosphate; for Pyroglutamic acid: metabolite Pyroglutamic acid; for UDP-D-glucose: metabolite UDP-D-glucose; for UDP-D-glucuronate: metabolite UDP-D-glucuronate; for UDP-N-acetyl-glucosamine: metabolite UDP-N-acetyl-glucosamine; for UDP: metabolite UDP; for UMP: metabolite UMP; for UTP: metabolite UTP; for a-ketoglutarate: metabolite a-ketoglutarate; for citrate/isocitrate: metabolite citrate/isocitrate; for cytidine: metabolite cytidine; for dATP: metabolite dATP; for dGMP/AMP: metabolite dGMP/AMP; for fumarate: metabolite fumarate; for glucose-1/6-phosphate: metabolite glucose-1/6-phosphate; for glycerate: metabolite glycerate; for guanine: metabolite guanine; for guanosine: metabolite guanosine; for hypoxanthine: metabolite hypoxanthine; for indole: metabolite indole; for inosine: metabolite inosine; for 2_3-Diphosphoglyceric acid / 4-phosphopantothenate / 6-phospho-D-gluconate / FMN / IMP / Pyrophosphate / Sedoheptoluse bisphosphate / cyclic-AMP / glutathione disulfide / lactate / myo-inositol: metabolite level change after treatment; for nicotinate: metabolite nicotinate; for ornithine: metabolite ornithine; for phosphoenolpyruvate: metabolite phosphoenolpyruvate; for pyruvate: metabolite pyruvate; for ribose-phosphate: metabolite ribose-phosphate; for sarcosine/alanine: metabolite sarcosine/alanine; for sn-glycerol-3-phosphate: metabolite sn-glycerol-3-phosphate; for succinate/methylmalonic acid: metabolite succinate/methylmalonic acid; for uridine: metabolite uridine; for xanthosine: metabolite xanthosine
[2] = tested on: P. falciparum; assay: EC50 listed in S2 Table Metabolomics (used to set the concentration tested); type: cell-based; conditions: Plasmodium falciparum; EC50 used for Factor_XEC50 in metabolomics; read-out: EC50_nM

O=[N+]([O-])c1ccc(C=NNc2nc3ccccc3[nH]2)cc1 [MMV666607]
Acetyllysine [1]: -1.035
N-acetyl-L-ornithine [1]: -1.151
N-carbamoyl-L-aspartate [1]: 0.2298
NADPH [1]: 4.216
dAMP [1]: 0.3403
dCMP [1]: 0.1583
dTDP [1]: 0.005163
dTMP [1]: -0.3628
dTTP [1]: 0.4469
dihydroorotate [1]: 0.1326
orotate [1]: 0.05442
DLH [1]: -0.8554
DLS/SDL/SID [1]: -0.615
PD [1]: -0.4537
PEE [1]: -0.9074
PVNF [1]: -1.15
3-phosphoglycerate [1]: 0.2233
ADP-D-glucose [1]: 0.2125
ATP [1]: 0.06188
CDP [1]: -0.1249
D-sedoheptulose-1/7-phosphate [1]: -0.1388
FAD [1]: -0.1276
GMP [1]: -0.06014
NAD+ [1]: -0.1512
NADP+ [1]: 0.1119
Octoluse Bisphosphate [1]: -0.09651
Pyroglutamic acid [1]: -0.1918
UDP-D-glucose [1]: -0.06053
UDP-D-glucuronate [1]: -0.006477
UDP-N-acetyl-glucosamine [1]: -0.08493
UDP [1]: -0.2957
UMP [1]: -0.07591
UTP [1]: 0.3053
a-ketoglutarate [1]: -0.2127
citrate/isocitrate [1]: -0.1765
cytidine [1]: -0.4158
dATP [1]: 0.1896
dGMP/AMP [1]: 0.09335
fumarate [1]: 0.008021
glucose-1/6-phosphate [1]: -0.3879
glycerate [1]: -0.4956
guanine [1]: -0.1214
guanosine [1]: 0.1402
hypoxanthine [1]: -0.3554
indole [1]: -0.1954
inosine [1]: -0.3969
2_3-Diphosphoglyceric acid [1]: 0.1914
4-phosphopantothenate [1]: 0.07423
6-phospho-D-gluconate [1]: 0.02335
FMN [1]: -0.06375
IMP [1]: 0.01329
Pyrophosphate [1]: 0.2379
Sedoheptoluse bisphosphate [1]: 0.02366
cyclic-AMP [1]: 0.0305
glutathione disulfide [1]: 0.01063
lactate [1]: -0.3072
myo-inositol [1]: -0.4133
nicotinate [1]: 0.09712
ornithine [1]: -0.3198
phosphoenolpyruvate [1]: 0.2853
pyruvate [1]: -0.3236
ribose-phosphate [1]: 0.1666
sarcosine/alanine [1]: -0.06565
sn-glycerol-3-phosphate [1]: -0.0116
succinate/methylmalonic acid [1]: 0.01013
uridine [1]: -0.4646
xanthosine [1]: 0.06506
EC50 [2]: 0.142 µM

COc1ccccc1CNC(=O)CCn1c(=O)[nH]c2ccsc2c1=O [MMV019066]
Acetyllysine [1]: 0.07735
N-acetyl-L-ornithine [1]: -0.0529
N-carbamoyl-L-aspartate [1]: 0.05336
NADPH [1]: -0.3877
dAMP [1]: -0.3418
dCMP [1]: -0.4851
dTDP [1]: 0.1634
dTMP [1]: 0.1236
dTTP [1]: -0.2106
dihydroorotate [1]: 0.243
orotate [1]: -0.2
DLH [1]: -0.2144
DLS/SDL/SID [1]: -0.3411
PD [1]: 0.09576
PEE [1]: 0.0022
PVNF [1]: -0.1895
3-phosphoglycerate [1]: -0.09413
ADP-D-glucose [1]: -0.05903
ATP [1]: -0.2412
CDP [1]: 0.1136
D-sedoheptulose-1/7-phosphate [1]: 0.1088
FAD [1]: 0.05372
GMP [1]: 0.1058
NAD+ [1]: 0.8616
NADP+ [1]: -0.0134
Octoluse Bisphosphate [1]: -0.2214
Pyroglutamic acid [1]: -0.1934
UDP-D-glucose [1]: 0.05907
UDP-D-glucuronate [1]: -0.137
UDP-N-acetyl-glucosamine [1]: 0.07368
UDP [1]: 0.06631
UMP [1]: 0.4511
UTP [1]: -0.2134
a-ketoglutarate [1]: -0.0676
citrate/isocitrate [1]: -0.2257
cytidine [1]: 0.1038
dATP [1]: -0.07834
dGMP/AMP [1]: 0.0855
fumarate [1]: 1.364
glucose-1/6-phosphate [1]: 0.5644
glycerate [1]: -0.201
guanine [1]: 0.002341
guanosine [1]: -0.12
hypoxanthine [1]: -0.07458
indole [1]: -0.09687
inosine [1]: -0.05497
2_3-Diphosphoglyceric acid [1]: -0.2512
4-phosphopantothenate [1]: -0.02128
6-phospho-D-gluconate [1]: -0.003238
FMN [1]: -0.1662
IMP [1]: 0.2187
Pyrophosphate [1]: -0.2235
Sedoheptoluse bisphosphate [1]: -0.07937
cyclic-AMP [1]: -0.08199
glutathione disulfide [1]: 0.08045
lactate [1]: -0.3675
myo-inositol [1]: -0.05445
nicotinate [1]: -0.03534
ornithine [1]: 0.2934
phosphoenolpyruvate [1]: -0.1195
pyruvate [1]: -0.02123
ribose-phosphate [1]: -0.1454
sarcosine/alanine [1]: 0.007595
sn-glycerol-3-phosphate [1]: -0.1485
succinate/methylmalonic acid [1]: 0.2071
uridine [1]: 0.04529
xanthosine [1]: -0.08771
EC50 [2]: 0.14 µM

Cc1ccc(N2C(=O)C3C(C2=O)C2(c4ccccc4)C(=O)C3(c3ccccc3)C(c3ccccc3)=C2c2ccccc2)cc1 (stereo not drawn) [MMV666062]
Acetyllysine [1]: -0.1709
N-acetyl-L-ornithine [1]: -0.324
N-carbamoyl-L-aspartate [1]: -0.2951
NADPH [1]: -0.2149
dAMP [1]: -0.4875
dCMP [1]: -0.7263
dTDP [1]: -0.1985
dTMP [1]: -0.6991
dTTP [1]: -0.2344
dihydroorotate [1]: -0.213
orotate [1]: -0.7199
DLH [1]: -0.006238
DLS/SDL/SID [1]: -0.3315
PD [1]: -0.3487
PEE [1]: -0.01834
PVNF [1]: -0.09341
3-phosphoglycerate [1]: -1.0087
ADP-D-glucose [1]: -0.2764
ATP [1]: -0.1502
CDP [1]: -0.3978
D-sedoheptulose-1/7-phosphate [1]: -0.4359
FAD [1]: -0.2118
GMP [1]: -0.3584
NAD+ [1]: -0.2488
NADP+ [1]: -0.1786
Octoluse Bisphosphate [1]: -0.3963
Pyroglutamic acid [1]: -0.08618
UDP-D-glucose [1]: -0.2942
UDP-D-glucuronate [1]: -0.1481
UDP-N-acetyl-glucosamine [1]: -0.3667
UDP [1]: -0.4806
UMP [1]: -0.3962
UTP [1]: -0.1426
a-ketoglutarate [1]: -0.4814
citrate/isocitrate [1]: -0.07191
cytidine [1]: -0.4412
dATP [1]: -0.199
dGMP/AMP [1]: -0.7601
fumarate [1]: -0.1898
glucose-1/6-phosphate [1]: 0.1468
glycerate [1]: -0.3247
guanine [1]: -0.8033
guanosine [1]: -0.4206
hypoxanthine [1]: -0.5014
indole [1]: -0.4173
inosine [1]: -0.516
2_3-Diphosphoglyceric acid [1]: -0.1968
4-phosphopantothenate [1]: -0.3798
6-phospho-D-gluconate [1]: -0.105
FMN [1]: -0.4755
IMP [1]: -0.5384
Pyrophosphate [1]: -0.0001746
Sedoheptoluse bisphosphate [1]: -0.4955
cyclic-AMP [1]: -0.438
glutathione disulfide [1]: -0.4046
lactate [1]: -0.3401
myo-inositol [1]: 0.6705
nicotinate [1]: -0.6806
ornithine [1]: -0.4373
phosphoenolpyruvate [1]: -0.3807
pyruvate [1]: -0.5819
ribose-phosphate [1]: -0.7488
sarcosine/alanine [1]: -0.5636
sn-glycerol-3-phosphate [1]: -0.1452
succinate/methylmalonic acid [1]: -0.2494
uridine [1]: -0.8945
xanthosine [1]: -0.2816
EC50 [2]: 0.282 µM
